From patent publication US11124497B1, “Inhibitors of cysteine proteases and methods of use thereof” (priority 2020, dated 2021)

Legend:
[1] = Cytotoxicity under 229E CPE assay conditions without virus infection (CellTiter Glo)
229E mPRO = 229E mPRO (Human coronavirus 229E (HCoV-229E), UniProt P0C6X1); test: 229E mPRO enzymatic assay; format: biochemical, Human Coronavirus (HCov) 229E; conditions: read-out: 229E mPRO IC50
Method: Compounds were assayed using standard methods to assess compound activity and IC50. […] The assay buffer contained 20 mM of Tris-HCl (pH 7.3), 100 mM of NaCl, 1 mM of EDTA, 5 mM of TCEP and 0.1% BSA.
The compounds were added to an assay plate.
IC50 values of compounds were calculated with the GraphPad Prism software using the nonlinear regression model of log(inhibitor) vs. response—Variable slope (four parameters). The inhibition activity was calculated using the formula below, IC50 values was calculated using the Inhibition % data. Inhibition %=[(Sample−Average ZPE)/(Average HPE−Average ZPE)]*100%^# • ^#HEP: Hundred percent effect controls. […] Containing enzyme+substrate, no compound. • Sample: Compound activity testing wells. Containing compound+enzyme+substrate. • BG: Compound background control wells. Containing compound+substrate, no enzyme.

SARS-COV2 Mpro = SARS-COV2 Mpro (Severe acute respiratory syndrome coronavirus 2 (2019-nCoV) (SARS-CoV-2), UniProt P0DTD1); test: COVID-19 (nCoV-2019, SARS-CoV2) Mpro enzymatic assay; format: biochemical; conditions: 25 nM Mpro, 25 μM substrate
HCoV 229E = HCoV 229E cytopathic effect (CPE) assay; format: cell-based, Human Coronavirus (HCov) 229E; conditions: unidentified human coronavirus, CellTiter Glo, read-out: 229 ECPE EC50
Method: Compounds were assayed using standard methods against multiple coronaviral strains, including HCoV 229E and OC43 strains. The antiviral activity of compounds was calculated based on the protection of the virus-induced CPE at each concentration normalized by the virus control.
Cytopathic effect (CPE) was measured by CellTiter Glo following the manufacturer's manual. The antiviral activity of compounds was calculated based on the protection of the virus-induced CPE at each concentration normalized by the virus control.

229E mPRO, sequence (P0C6X1 2966-3267 limits assumed): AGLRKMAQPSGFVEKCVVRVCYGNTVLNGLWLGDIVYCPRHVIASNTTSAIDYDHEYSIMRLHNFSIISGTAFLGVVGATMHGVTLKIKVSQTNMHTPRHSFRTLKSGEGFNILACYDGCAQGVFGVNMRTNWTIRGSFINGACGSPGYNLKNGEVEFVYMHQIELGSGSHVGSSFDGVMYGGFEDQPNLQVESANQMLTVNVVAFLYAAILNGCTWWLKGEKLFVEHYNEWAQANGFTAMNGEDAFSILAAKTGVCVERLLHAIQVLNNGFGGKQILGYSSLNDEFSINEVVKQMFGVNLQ

| SMILES | CC50 [1] [µM] | IC50 (229E mPRO) [µM] | IC50 (SARS-COV2 Mpro) [µM] | EC50 (HCoV 229E) [µM] | CC50 (in vitro) [µM] |
| --- | --- | --- | --- | --- | --- |
| CC(C)CC(NC(=O)c1nc2ncccc2[nH]1)C(=O)NC(C#N)CC1CCNC1=O (single isomer, unassigned) [130 (Isomer 1)] | > 30 | – | – | – | – |
| N#CC1(NC(=O)[C@H](CC2CC2)NC(=O)OCc2ccccc2)C[C@H]2CC[C@@H]1[C@H]1C(=O)NC(=O)[C@@H]21 (single isomer, unassigned) [495 (Isomer 1)] | – | > 30 | > 30 | – | – |
| COc1cccc2[nH]c(C(=O)N3CC4(CCC4)CC3C(=O)N[C@H](C#N)C[C@@H]3CCCNC3=O)cc12 (single isomer, unassigned) [719 (Isomer 2)] | – | < 22 | < 22 | < 22 | – |
| COc1cccc2[nH]c(C(=O)N[C@@H](CC(C)C)C(=O)N[C@@H](C[C@@H]3CCNC3=O)C(O)C#N)cc12 (stereo partly drawn) [Compound 135, N-[(1S)-1-[[(1S)-2-cyano-2-hydroxy-1-[[(3S)-2-oxopyrrolidin-3-yl]methyl]ethyl]carbamoyl]-3-methyl-butyl]-4-methoxy-1H-indole-2-carboxamide] | – | – | – | < 22 | > 30 |
| COc1cccc2[nH]c(C(=O)N3CC(c4ccccc4)CC3C(=O)NC(C#N)CC3CCNC3=O)cc12 (centres unmarked) [Compound 170] | – | – | – | – | > 30 |
| COc1cccc2[nH]c(C(=O)N[C@@H](CC(C)C)C(=O)N[C@H](C#N)Cc3cncn3C)cc12 [Compound 225, N-[(1S)-1-[[(1S)-1-cyano-2-(3-methylimidazol-4-yl)ethyl]carbamoyl]-3-methyl-butyl]-4-methoxy-1H-indole-2-carboxamide] | – | > 30 | > 30 | – | – |
| N#C[C@H](C[C@@H]1CCNC1=O)NC(=O)[C@H](CC1CC1)n1ccc2[nH]cnc2c1=O [Compound 269] | – | > 30 | > 30 | – | – |
| COc1cccc2[nH]c(C(=O)N[C@@H](CC3CC3)C(=O)N[C@@]3(C#N)CCc4cccnc4C3)cc12 [Compound 279] | – | > 30 | > 30 | – | – |
| COc1cccc2[nH]c(C(=O)N[C@@H](CC(C)C)C(=O)N[C@@H](C[C@@H]3CCNC3=O)C(C#N)Nc3ccccc3)cc12 (some centres unmarked) [Compound 327] | – | < 22 | < 22 | 2 to 10 | – |
| CC[C@H]1CN(C(=O)c2cc3c(OC)cccc3[nH]2)[C@@H]1C(=O)N[C@H](C#N)C[C@@H]1CCNC1=O [Compound 391] | – | > 30 | > 30 | – | – |
| COc1cccc2[nH]c(C(=O)N[C@@H](CC(C)C)C(=O)N[C@H](C#N)Cc3ccccn3)cc12 [Compound 439] | – | > 30 | 10 to 30 | – | – |
| N#C[C@H](C[C@@H]1CCNC1=O)NC(=O)[C@@H]1CS[C@H]2CC[C@H](N)C(=O)N21 [Compound 479] | – | 10 to 30 | > 30 | – | – |
| N#C[C@H](C[C@@H]1CCNC1=O)NC(=O)[C@@H]1CCc2ccc(NCC(=O)Oc3ccccc3)c(=O)n21 [Compound 483] | – | > 30 | > 30 | – | – |
| N#C[C@H](C[C@@H]1CCNC1=O)NC(=O)[C@@H]1CCc2ccc(NCC(=O)O)c(=O)n21 [Compound 501] | – | > 30 | > 30 | – | – |
| COc1nccc2[nH]c(C(=O)N[C@@H](CC3CC3)C(=O)N[C@H](C#N)C[C@@H]3CCCNC3=O)cc12 [Compound 623] | – | > 30 | > 30 | – | – |
| COc1cccc2[nH]c(C(=O)N[C@@H](CC(C)C)C(=O)N[C@@H](C[C@@H]3CCNC3=O)C(C#N)NCC(=O)O)cc12 (some centres unmarked) [Compound 653] | – | < 22 | < 22 | < 22 | – |
| COc1cccc2[nH]c(C(=O)N[C@H](CN[C@H](C#N)C[C@@H]3CCNC3=O)CC(C)(C)C)cc12 [Compound 659] | – | > 30 | > 30 | – | – |
